The NIST ThermoML archive (doi:10.1016/j.jct.2017.02.022)

What was measured:
[1] = refractive index (Na D-line) (dimensionless); xn = mol fraction of the nth substance listed; details: 101.3 kPa, Liquid, Standard Abbe refractometry
[2] = xn = mol fraction of the nth substance listed; details: 101.3 kPa, Liquid; for speed of sound: Frequency=3 MHz, Sing-around technique in a fixed-path interferometer; for mass density: Vibrating tube method

COS(=O)(=O)[O-].Cn1cc[n+](C)c1 [1,3-dimethylimidazolium methylsulfate] + CCCO
Details	mass density, [2] [kg/m3]	refractive index, [1]	speed of sound, [2] [m/s]
298 K, x1 = 0.039	843	1.389	1225
298 K, x1 = 0.208	995	1.413	1348
298 K, x1 = 0.382	1107	1.434	1481
298 K, x1 = 0.561	1193	1.452	1605
298 K, x1 = 0.702	1246	1.464	1684
298 K, x1 = 0.912	1307	1.477	1773
298 K, x1 = 1	1329	1.483	1811
303 K, x1 = 0.039	839	1.387	1208
303 K, x1 = 0.208	989	1.41	1332
303 K, x1 = 0.382	1100	1.432	1465
303 K, x1 = 0.561	1186	1.45	1590
303 K, x1 = 0.702	1239	1.461	1670
303 K, x1 = 0.912	1301	1.476	1760
303 K, x1 = 1	1322	1.481	1799
308 K, x1 = 0.039	834	1.385	1191
308 K, x1 = 0.208	984	1.408	1316
308 K, x1 = 0.382	1095	1.429	1450
308 K, x1 = 0.561	1181	1.447	1575
308 K, x1 = 0.702	1234	1.459	1656
308 K, x1 = 0.912	1297	1.474	1747
308 K, x1 = 1	1319	1.48	1787
313 K, x1 = 0.039	830	1.382	1175
313 K, x1 = 0.208	979	1.404	1300
313 K, x1 = 0.382	1090	1.426	1434
313 K, x1 = 0.561	1176	1.444	1561
313 K, x1 = 0.702	1229	1.456	1642
313 K, x1 = 0.912	1293	1.472	1734
313 K, x1 = 1	1315	1.479	1775

CCn1cc[n+](C)c1.COS(=O)(=O)[O-] [1-ethyl-3-methylimidazolium methylsulfate] + CCCCCO
Details	mass density, [2] [kg/m3]	refractive index, [1]	speed of sound, [2] [m/s]
298 K, x1 = 0.05	849	1.413	1291
298 K, x1 = 0.284	999	1.435	1425
298 K, x1 = 0.459	1089	1.448	1527
298 K, x1 = 0.613	1157	1.458	1603
298 K, x1 = 0.768	1216	1.468	1662
298 K, x1 = 0.922	1268	1.476	1721
298 K, x1 = 1	1292	1.48	1762
303 K, x1 = 0.05	845	1.412	1274
303 K, x1 = 0.284	994	1.434	1409
303 K, x1 = 0.459	1085	1.447	1511
303 K, x1 = 0.613	1153	1.457	1588
303 K, x1 = 0.768	1212	1.466	1648
303 K, x1 = 0.922	1265	1.475	1708
303 K, x1 = 1	1289	1.479	1750
308 K, x1 = 0.05	841	1.411	1258
308 K, x1 = 0.284	990	1.432	1393
308 K, x1 = 0.459	1081	1.445	1496
308 K, x1 = 0.613	1149	1.455	1573
308 K, x1 = 0.768	1208	1.465	1634
308 K, x1 = 0.922	1261	1.473	1695
308 K, x1 = 1	1285	1.478	1739
313 K, x1 = 0.05	837	1.409	1241
313 K, x1 = 0.284	986	1.43	1377
313 K, x1 = 0.459	1077	1.443	1480
313 K, x1 = 0.613	1145	1.453	1559
313 K, x1 = 0.768	1205	1.463	1620
313 K, x1 = 0.922	1258	1.472	1682
313 K, x1 = 1	1282	1.476	1727

CCn1cc[n+](C)c1.COS(=O)(=O)[O-] [1-ethyl-3-methylimidazolium methylsulfate] + CCCCO
Details	mass density, [2] [kg/m3]	refractive index, [1]	speed of sound, [2] [m/s]
298 K, x1 = 0.041	843	1.403	1260
298 K, x1 = 0.219	976	1.424	1372
298 K, x1 = 0.417	1087	1.442	1504
298 K, x1 = 0.571	1156	1.454	1593
298 K, x1 = 0.731	1214	1.464	1662
298 K, x1 = 0.909	1268	1.475	1729
298 K, x1 = 1	1292	1.48	1762
303 K, x1 = 0.041	839	1.401	1243
303 K, x1 = 0.219	972	1.422	1356
303 K, x1 = 0.417	1083	1.44	1488
303 K, x1 = 0.571	1152	1.452	1578
303 K, x1 = 0.731	1210	1.462	1648
303 K, x1 = 0.909	1264	1.473	1716
303 K, x1 = 1	1289	1.479	1750
308 K, x1 = 0.041	835	1.398	1226
308 K, x1 = 0.219	967	1.419	1340
308 K, x1 = 0.417	1078	1.437	1473
308 K, x1 = 0.571	1147	1.449	1563
308 K, x1 = 0.731	1206	1.461	1634
308 K, x1 = 0.909	1261	1.472	1702
308 K, x1 = 1	1285	1.478	1739
313 K, x1 = 0.041	830	1.395	1209
313 K, x1 = 0.219	963	1.416	1324
313 K, x1 = 0.417	1074	1.435	1457
313 K, x1 = 0.571	1143	1.447	1548
313 K, x1 = 0.731	1202	1.459	1620
313 K, x1 = 0.909	1257	1.47	1689
313 K, x1 = 1	1282	1.476	1727

CCn1cc[n+](C)c1.COS(=O)(=O)[O-] [1-ethyl-3-methylimidazolium methylsulfate] + CCCO
Details	mass density, [2] [kg/m3]	refractive index, [1]	speed of sound, [2] [m/s]
298 K, x1 = 0.059	864	1.394	1247
298 K, x1 = 0.228	1003	1.419	1377
298 K, x1 = 0.375	1090	1.435	1487
298 K, x1 = 0.524	1156	1.448	1588
298 K, x1 = 0.72	1223	1.463	1681
298 K, x1 = 0.874	1264	1.473	1730
298 K, x1 = 1	1292	1.48	1762
303 K, x1 = 0.059	859	1.393	1230
303 K, x1 = 0.228	998	1.417	1362
303 K, x1 = 0.375	1085	1.433	1473
303 K, x1 = 0.524	1152	1.446	1574
303 K, x1 = 0.72	1219	1.461	1668
303 K, x1 = 0.874	1260	1.471	1717
303 K, x1 = 1	1289	1.479	1750
308 K, x1 = 0.059	855	1.391	1214
308 K, x1 = 0.228	993	1.415	1347
308 K, x1 = 0.375	1080	1.431	1458
308 K, x1 = 0.524	1148	1.444	1560
308 K, x1 = 0.72	1215	1.459	1654
308 K, x1 = 0.874	1257	1.469	1704
308 K, x1 = 1	1285	1.478	1739
313 K, x1 = 0.059	851	1.389	1197
313 K, x1 = 0.228	989	1.413	1332
313 K, x1 = 0.375	1076	1.428	1443
313 K, x1 = 0.524	1143	1.442	1546
313 K, x1 = 0.72	1211	1.457	1641
313 K, x1 = 0.874	1253	1.468	1692
313 K, x1 = 1	1282	1.476	1727
